ChEMBL document CHEMBL1145407, “Structure-activity relationships of alpha-ketooxazole inhibitors of fatty acid amide hydrolase” (J Med Chem, 2007)

Tests used:
[1] = target: T1, Fatty-acid amide hydrolase 1 (Rattus norvegicus, UniProt P97612); assay: Inhibition of rat recombinant FAAH expressed in Escherichia coli
T1 sequence (P97612 whole entry): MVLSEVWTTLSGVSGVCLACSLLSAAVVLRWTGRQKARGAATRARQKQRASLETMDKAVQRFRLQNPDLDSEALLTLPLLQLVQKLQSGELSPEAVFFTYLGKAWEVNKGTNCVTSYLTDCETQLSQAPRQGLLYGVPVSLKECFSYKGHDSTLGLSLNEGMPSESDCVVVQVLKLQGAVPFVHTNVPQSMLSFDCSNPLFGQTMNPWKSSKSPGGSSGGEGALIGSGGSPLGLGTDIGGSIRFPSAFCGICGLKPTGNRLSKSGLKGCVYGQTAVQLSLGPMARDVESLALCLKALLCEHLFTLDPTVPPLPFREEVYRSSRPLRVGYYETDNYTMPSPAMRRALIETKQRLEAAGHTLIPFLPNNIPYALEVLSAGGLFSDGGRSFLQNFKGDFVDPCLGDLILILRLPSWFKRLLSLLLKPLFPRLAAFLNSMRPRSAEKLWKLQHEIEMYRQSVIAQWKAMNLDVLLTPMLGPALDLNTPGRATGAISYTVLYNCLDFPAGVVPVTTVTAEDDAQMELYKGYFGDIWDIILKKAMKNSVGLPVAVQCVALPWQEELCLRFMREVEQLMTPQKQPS

[2] = Selectivity for rat recombinant FAAH over TGH
[3] = Selectivity for rat recombinant FAAH over KIAA1363

Row | Compound | Ki [1] [nM] | Ratio IC50 [2] | Ratio IC50 [3]
1 | Cc1ccc(CCCCCCC(=O)c2ncc(-c3ccccn3)o2)cc1 | 2.8 | 125 | > 2500
2 | O=C(CCCCC#Cc1ccncc1)c1ncc(-c2ccccn2)o1 | 150 | – | –
3 | O=C(COCCCCc1ccccc1)c1ncc(-c2ccccn2)o1 | 60 | 34 | > 58
4 | COc1cccc(CCCCCCC(=O)c2ncc(-c3ccccn3)o2)c1 | 2.5 | 50 | > 5000
5 | O=C(CCCCCCc1ccccn1)c1ncc(-c2ccccn2)o1 | 120 | 33 | > 3300
6 | O=C(c1ncc(-c2ccccn2)o1)C1CC1 | > 50000 | – | –
7 | O=C(CCc1ccc(Sc2ccccc2)cc1)c1ncc(-c2ccccn2)o1 | – | 30 | > 50000
8 | O=C(CCCCCCc1ccc(Cl)cc1)c1ncc(-c2ccccn2)o1 | 2.7 | 67 | > 3300
9 | CN(CCCc1ccccc1)CCC(=O)c1ncc(-c2ccccn2)o1 | 200 | – | –
10 | CC(C)(C)OC(=O)Nc1ccc(CCCCCCC(=O)c2ncc(-c3ccccn3)o2)cc1 | 5.6 | – | –
11 | O=C(CCCCOCc1ccccc1)c1ncc(-c2ccccn2)o1 | 55 | – | –
12 | CC(C)(C)OC(=O)Nc1cccc(C#CCCCCC(=O)c2ncc(-c3ccccn3)o2)c1 | 12 | – | –
13 | CS(=O)(=O)c1cccc(CCCCCCC(=O)c2ncc(-c3ccccn3)o2)c1 | 1.3 | 1000 | > 25000
14 | O=C(CCCC[S+]([O-])Cc1ccccc1)c1ncc(-c2ccccn2)o1 (configuration not stated) | 2500 | – | –
15 | COC(=O)c1cccc(C#CCCCCC(=O)c2ncc(-c3ccccn3)o2)c1 | 30 | – | –
16 | O=C(CCC(=O)c1ncc(-c2ccccn2)o1)NCCc1ccccc1 | > 100000 | – | –
17 | CN(CCCC(=O)c1ncc(-c2ccccn2)o1)CCc1ccccc1 | 3500 | – | –
18 | O=C(CCc1ccc(OCc2ccccc2)cc1)c1nc2ncccc2o1 | – | 130 | 7000
19 | O=C(CCC(O)CCCc1ccccc1)c1ncc(-c2ccccn2)o1 (configuration not stated) | 500 | – | –
20 | O=C(CCc1ccc(Cc2ccccc2)cc1)c1ncc(-c2ccccn2)o1 | – | 300 | > 33000
21 | CC(C)(C)OC(=O)Nc1cccc(CCCCCCC(=O)c2ncc(-c3ccccn3)o2)c1 | 2.4 | – | –
22 | O=C(CCCCCC(O)c1ccccc1)c1ncc(-c2ccccn2)o1 (configuration not stated) | 35 | – | –

Row | Compound | Ki [1] [nM] | Ratio IC50 [2] | Ratio IC50 [3]
23 | O=C(CCCCC#Cc1cccc(F)c1)c1ncc(-c2ccccn2)o1 | 3.2 | – | –
24 | COC(=O)c1ccc(C#CCCCCC(=O)c2ncc(-c3ccccn3)o2)cc1 | 25 | – | –
25 | O=C(CCCCCS(=O)(=O)c1ccccc1)c1ncc(-c2ccccn2)o1 | 6000 | – | –
26 | Nc1cccc(CCCCCCC(=O)c2ncc(-c3ccccn3)o2)c1 | 30 | – | –
27 | O=C(C[S+]([O-])CCCCc1ccccc1)c1ncc(-c2ccccn2)o1 (configuration not stated) | 1000 | – | –
28 | O=C(CCc1ccc(Nc2ccccc2)cc1)c1ncc(-c2ccccn2)o1 | – | 120 | > 20000
29 | O=C(CS(=O)(=O)CCCCc1ccccc1)c1ncc(-c2ccccn2)o1 | 20000 | – | –
30 | O=C(CCCCCOc1ccccc1)c1ncc(-c2ccccn2)o1 | 14 | – | –
31 | O=C(CCCCC#Cc1ccccn1)c1ncc(-c2ccccn2)o1 | 280 | – | –
32 | O=C(CCCCC#Cc1ccccc1C(F)(F)F)c1ncc(-c2ccccn2)o1 | 16 | – | –
33 | CN(CCCCc1ccccc1)CC(O)c1ncc(-c2ccccn2)o1 (configuration not stated) | > 100000 | – | –
34 | O=C(CCCCCCc1cccc2ccccc12)c1ncc(-c2ccccn2)o1 | – | 30 | > 10000
35 | O=C(CCCCSCc1ccccc1)c1ncc(-c2ccccn2)o1 | 25 | – | –
36 | O=C(CCCOCCc1ccccc1)c1ncc(-c2ccccn2)o1 | 63 | – | –
37 | O=C(CCCCCCc1cccc(Cl)c1)c1ncc(-c2ccccn2)o1 | – | 250 | > 50000
38 | O=C(CCCCCCc1ccccc1C(=O)O)c1ncc(-c2ccccn2)o1 | > 600 | – | –
39 | O=C(CCc1cccc(OCc2ccccc2)c1)c1ncc(-c2ccccn2)o1 | – | 20 | > 1000
40 | O=C(CCOCCCc1ccccc1)c1ncc(-c2ccccn2)o1 | 90 | – | –
41 | O=C(CCCCC#Cc1cccnc1)c1ncc(-c2ccccn2)o1 | 300 | – | –
42 | O=C(CC(O)CCCCc1ccccc1)c1ncc(-c2ccccn2)o1 (configuration not stated) | 35 | – | –
43 | O=C(CCCC(O)CCc1ccccc1)c1ncc(-c2ccccn2)o1 (configuration not stated) | 1500 | – | –
44 | COC(=O)CCCC(=O)c1ncc(-c2ccccn2)o1 | 7000 | – | –

Further lines, results first:

Row | Ki [1] [nM] | Ratio IC50 [2] | Ratio IC50 [3] | Compound
45 | > 600 | – | – | O=C(O)c1ccc(CCCCCCC(=O)c2ncc(-c3ccccn3)o2)cc1
46 | 200 | – | – | O=C(CCCCC(O)Cc1ccccc1)c1ncc(-c2ccccn2)o1 (configuration not stated)
47 | > 100000 | – | – | COC(=O)CCC(=O)c1ncc(-c2ccccn2)o1
48 | 1800 | – | – | COC(=O)CCCCC(=O)c1ncc(-c2ccccn2)o1
49 | 3 | 100 | > 3300 | Cc1ccccc1CCCCCCC(=O)c1ncc(-c2ccccn2)o1
50 | 1000 | – | – | O=C(CCCCC[S+]([O-])c1ccccc1)c1ncc(-c2ccccn2)o1 (configuration not stated)
51 | 1.5 | 25000 | > 400000 | COC(=O)c1ccc(CCCCCCC(=O)c2ncc(-c3ccccn3)o2)cc1
52 | > 600 | – | – | O=C(O)c1cccc(CCCCCCC(=O)c2ncc(-c3ccccn3)o2)c1
53 | 25 | – | – | O=C(CCCCC#Cc1ccccc1)c1ncc(-c2ccccn2)o1
54 | 4 | – | – | O=C(CSCCCCc1ccccc1)c1ncc(-c2ccccn2)o1
55 | 40 | – | – | CN(CCCCCC(=O)c1ncc(-c2ccccn2)o1)c1ccccc1
56 | 36 | – | – | O=C(CCCCC#Cc1ccc(F)cc1)c1ncc(-c2ccccn2)o1
57 | 75 | – | – | O=C(CCCCC#Cc1ccc(C(F)(F)F)cc1)c1ncc(-c2ccccn2)o1
58 | 4.8 | – | – | O=C(CCCCC#Cc1cccc([N+](=O)[O-])c1)c1ncc(-c2ccccn2)o1
59 | 20 | – | – | O=C(CCCCC#Cc1ccc(Cl)cc1)c1ncc(-c2ccccn2)o1
60 | 13 | – | – | O=C(CCCCC#Cc1ccccc1Cl)c1ncc(-c2ccccn2)o1
61 | > 10000 | – | – | O=C(CCCCS(=O)(=O)Cc1ccccc1)c1ncc(-c2ccccn2)o1

Row | Ki [1] [nM] | Ratio IC50 [2] | Ratio IC50 [3] | Compound
62 | 200 | – | – | CN(CCCCC(=O)c1ncc(-c2ccccn2)o1)Cc1ccccc1
63 | > 2000 | – | – | O=C(CCCCc1ccccc1)CC(=O)c1ncc(-c2ccccn2)o1
64 | 17 | – | – | O=C(CCCCC#Cc1ccccc1[N+](=O)[O-])c1ncc(-c2ccccn2)o1
65 | 2500 | – | – | O=C(c1ncc(-c2ccccn2)o1)C1CCCC1
66 | 2000 | – | – | OC(CCCCCc1ccccc1)C(O)c1ncc(-c2ccccn2)o1 (configuration not stated)
67 | 31 | – | – | O=C(CCCCC#Cc1ccc([N+](=O)[O-])cc1)c1ncc(-c2ccccn2)o1
68 | 800 | – | – | O=C(CCl)c1ncc(-c2ccccn2)o1
69 | 20000 | – | – | O=C(CCCC(=O)c1ncc(-c2ccccn2)o1)NCc1ccccc1
70 | 23 | – | – | CC(C)(C)OC(=O)Nc1ccc(C#CCCCCC(=O)c2ncc(-c3ccccn3)o2)cc1
71 | 8 | – | – | O=C(CCCCC#Cc1ccccc1F)c1ncc(-c2ccccn2)o1
72 | – | 8000 | > 100000 | O=C(CCc1ccc(OCc2ccccc2)cc1)c1ncc(-c2ccccn2)o1
73 | 10 | – | – | O=C(CCCCC#Cc1cccc(C(F)(F)F)c1)c1ncc(-c2ccccn2)o1
74 | 5 | – | – | O=C(CCCCC#Cc1cccc(Cl)c1Cl)c1ncc(-c2ccccn2)o1
75 | 7 | – | – | O=C(CCCCC#Cc1cccc(Cl)c1)c1ncc(-c2ccccn2)o1
76 | 3100 | – | – | O=C(CCCCC(=O)c1ncc(-c2ccccn2)o1)Nc1ccccc1
77 | – | 1000 | > 50000 | O=C(CCc1ccc(COc2ccccc2)cc1)c1ncc(-c2ccccn2)o1
